According to patent US20140243281A1, “BILE ACID RECYCLING INHIBITORS FOR TREATMENT OF PEDIATRIC CHOLESTATIC LIVER DISEASES” (Lumena Pharmaceuticals, Inc., priority 2011, published 2014):
Read-outs that look alike come from different tables or passages of the source. Marks after values point to notes of the source that are not given here.

Experiments:
Male ZDF rats = assay: Plasma bile acid levels of ZDF rats after ascending doses of SC-435 and LUM002; format: in vivo, rat; details: ZDF rats n=4; all doses (SC-435 1, 10, 30 mg/kg; LUM002 0.3, 1, 3, 10, 30 mg/kg) oral gavage twice a day, 2 weeks
Experimental: FIG. 2. Plasma bile acid levels of ZDF rats after administration of ascending doses of SC-435 and LUM002. Male ZDF rats (n=4) were administered vehicle, SC-435 (1, 10 or 30 mg/kg) or LUM002 (0.3, 1, 3, 10 or 30 mg/kg) by oral gavage twice a day for 2 weeks. Plasma bile acid levels were determined at the end of the second week. Data are expressed as mean values±SEM.
Male ZDF rats (n=4) were administered vehicle, SC-435 (1, 10 or 30 mg/kg) or LUM002 (0.3, 1, 3, 10 or 30 mg/kg) by oral gavage twice a day for 2 weeks. Plasma bile acid levels were determined at the end of the second week. […] Data are expressed as mean values±SEM.

[1] = system: children and adolescents under the age of eighteen; assay: Fasting serum bile acid and morning post-prandial peak in pediatric subjects; format: in vivo, human; details: QD in the morning
Experimental: (§1) LUM001 has been administered to forty patients under the age of 18 years old. […] The drug was administered once-a-day (QD) in the morning for fourteen days. […] These doses are similar to those using to treat children with cholestatic diseases.
The efficacy of LUM001 was determined by measuring total serum bile acids after eight days of dosing in children and adolescents under the age of eighteen. Thirty minutes before the next drug administration, at approximately 8 am in the morning, serum bile acid levels were measured. The child had refrained from food for 12 hours prior to this sample thus providing a fasted level of serum bile acid. After breakfast, serum bile acids were measured for up to the next 4 hours (8 am to noon) and the peak serum bile acid concentration noted.

[2] = Pharmacokinetics (systemic exposure) of LUM001 in pediatric subjects; format: in vivo, human; details: for concentration at 8 day: human, serum, read-out: Average serum drug exposure
Experimental: as §1

[3] = system: treated subjects aged 10-17; assay: Pediatric multiple-dose study, tolerability; format: in vivo, human; details: 2 weeks daily up to 5 mg q.d.; 39 treated subjects aged 10-17
From the text: (39 treated subjects aged 10-17).

Male beagle dogs [4] = assay: Time to onset of activity on postprandial serum total bile acids in beagle dogs; format: in vivo; details: dog
Experimental: (§2) Test compound: LUM001-Form I
(§3) LUM001 was dissolved in water at concentrations that required the administration of 0.2 ml/kg of solution. Solutions were placed into gelatin capsules, Torpac Inc., size 13 Batch 594, East Hanover N.J., and administered orally.
(§4) Male beagle dogs were obtained from Covance Research Products, Cumberland Va. or Marshall Farms USA, Inc., North Rose N.Y. A total of 20 dogs, 1 to 5 years old, 6.8 to 15.6 kg body weight, were used in these experiments. The dogs were conditioned to a 12 hour light/dark cycle and maintained on a feeding restriction of 1 hour per day access to food (Richman Standard Certified Canine Diet #5007, PMI Nutrition, Inc., St Louis Mo.) from 7 to 8 AM. They were trained to eat a special meal promptly within 20 minutes when presented (1 can. 397 g, Evanger's 100% Beef for Dogs, Evanger's Dog and Cat Food Co., Inc., Wheeling Ill., mixed with 50 g of sharp cheddar cheese.).
(§5) SBA was measured by an enzymatic assay. SBA values are expressed as μg of total bile acids/ml of serum.
To estimate the details of this plateau, 6 dogs were given a test meal and blood samples for SBA measurement were collected at −30, 0, 30, 60, 65, 70, 80, 90, 120, 180, 240, 360, 480, 720, 1410 and 1440 minutes from the time of feeding. Any remaining food was removed 20 min after it was first presented to the dogs. […]

healthy, adult subjects = assay: Phase 1 ascending multiple oral doses in healthy subjects: serum and fecal bile acid analysis; format: in vivo, human; details: 28 days
Experimental: This Phase 1 study was a randomized, double-blind, placebo-controlled study of ascending multiple oral doses of LUM001 in healthy, adult subjects. This study was conducted at a single center. There were 13 LUM001 dosing panels: 10, 20, 60, 100, and 20 mg every morning (qAM) (2) (i.e., the regimen was tested a second time in the study), 5 mg every evening (qPM), 0.5, 1, 2.5, 5, 2.5 (2), 5 (2), and 0.5 to 5 mg qAM dose titration. Most of the dosing panels included subjects treated with matching placebo. Shown in the graphs are data from the 0.5 (n=16), 1.0 (n=8), 2.5 (n=8), 5.0 (n=8) and 10 (n=8) mg dosing groups. […]
SBA were analyzed as part of the routine clinical analysis of the serum samples collected at each time point.
Fecal samples were collected for all panels except the dose-titration panel, 2.5 (2) and 5 mg (2), on Days 9 through 14 and 23 through 28 (data shown in FIG. 4). Twenty-four hour FBA excretions were quantified by Pharmacia for Days 9 through 14 and 23 through 28. […] The weight of each 24-hour fecal collection was recorded on the CRFs. […]
An aliquot for each 24-hour fecal sample collected on Days 23 through 28 was combined, homogenized, and analyzed for bile acid species concentrations by ANAPHARM. The fecal bile acid species evaluated include chenodeoxycholic acid, cholic acid, deoxycholic acid, and lithocholic acid.

Male beagle dogs [5] = assay: Duration of action on dog serum bile acids, Method 1: two meals for extended SBA elevation; format: in vivo; details: for Serum Bile Acid, Mean: full meal at 0 hr, dosed at 1 hr, half meal at 4 hr
Experimental: as §2, §3, §4, §5
To estimate the details of this plateau, 6 dogs were given a test meal and blood samples for SBA measurement were collected at −30, 0, 30, 60, 65, 70, 80, 90, 120, 180, 240, 360, 480, 720, 1410 and 1440 minutes from the time of feeding. Any remaining food was removed 20 min after it was first presented to the dogs. To establish a method for extending the elevated plateau of SBA, 6 dogs were given the meal at 0 hr and an additional ½ size meal again 4 hr after their first meal. Blood samples were taken at 0, 1, 2, 3, 4, 4.5, 6, 7 and 8 hr. The curves for SBA level vs time obtained in these experiments were used as references for determining blood sampling times in experiments with LUM001. Wherever possible, experimental design permitting, in experiments with test compound, each dog served as its own simultaneous control, and the mean 1 hr SBA value served as the reference to which all other mean values were compared.
In dogs a single experimental meal produces a postprandial rise in SBA that is elevated to a peak at 1 hour after feeding and constant for an additional 3 hours. Previous experiments (2) indicate that LUM001 remains active for more than 4.5 hours. To measure the duration of action of an ASBT inhibitor using postprandial SBA levels requires that in the control situation the SBA levels remain elevated and constant for the entire period of compound action, or that the compound be administered long before the postprandial rise occurs, and remain active in the empty digestive system for long periods before feeding. Accordingly, two alternative methods were used to provide a window of constant SBA elevation that could be used to measure the duration of action of ASBT inhibitors.
[…] At 4 hours after the meal was offered, a second meal of ½ the size of the first meal was offered. It too was consumed as promptly and thoroughly as the first meal, and provided an extended, constant SBA plateau. Blood samples for SBA measurement were taken at 0, 1, 1.5, 2, 4, 4.5, 5, 5.5, 6, 6.5, 7, 7.5 and 8 hours from the time of offering the first meal. Mean SBA levels were compared to the mean SBA level at 1 hour, each dog serving as its own control.
All animals were fed a full meal at 0 hour, dosed orally with the compound at 1 hour and then fed an additional one-half meal at 4 hours. *=p<0.05 compared to the mean value in the same curve at 1 hour by two-tailed paired two-sample t-test.

[6] = system: Male Zucker diabetic fatty rats (ZDF/GmiCrl-fa/fa); assay: Fecal bile acid excretion and plasma bile acid concentrations in ZDF rats given 264W94; format: in vivo, rat; details: 2 weeks
Experimental: Male Zucker diabetic fatty rats (ZDF/GmiCrl-fa/fa) were purchased from Charles River (Raleigh, N.C.) and housed under controlled conditions (12:12 light-dark cycle, 24° C. and 50% relative humidity) with free access to rodent food (Purina 5008, Harlan Teklad, Indianapolis, Ind.). All rats arrived at seven weeks of age (±3 days). After a one-week acclimation period, rats were anesthetized with isoflurane (Abbott Laboratories, IL) and tail-vein blood samples were collected at 9 am without fasting. Blood glucose levels were measured using a glucometer (Bayer, Leverkusen, Germany). In order to ensure balanced treatment groups, ZDF rats were assigned to six treatment groups based upon baseline glucose: vehicle (0.5% HPMC, 0.1% Tween80) and five doses of 264W94 (0.001, 0.01, 0.1, 1, 10 mg/kg). All treatments were given via oral gavage twice a day and animals were followed for two weeks with blood samples collected from tail vein at the end of each week at 9 am without fasting. Fecal samples were collected for 24 hours during the second week of treatment.
Non-esterified fatty acids (NEFA), bile acids, and bile acids in fecal extraction were measured using the Olympus AU640 clinical chemistry analyzer (Beckman Coulter, Irving, Tex.).

SMILES: CCCCC1(CCCC)CS(=O)(=O)c2ccc(N(C)C)cc2[C@@H](c2ccc(OCCCC[N+]34CCN(CC3)CC4)cc2)[C@H]1O.CS(=O)(=O)[O-] [SC-435, 1-[4-[4-[(4R,5R)-3,3-dibutyl-7-(dimethylamino)-2,3,4,5-tetrahydro-4-hydroxy-1,1-dioxido-1-benzothiepin-5-yl]phenoxy]butyl]-4-aza-1-azoniabicyclo[2.2.2]octane methanesulfonate salt, reference compound]
- Plasma bile acid levels (Male ZDF rats): decreased

SMILES: CCCCC1(CCCC)CS(=O)(=O)c2ccc(N(C)C)cc2[C@@H](c2ccc(OCc3ccc(C[N+]45CCN(CC4)CC5)cc3)cc2)[C@H]1O [LUM001]
- Decrease of fasting serum bile acid level versus placebo patients [1]: 24%
- Decrease of post-prandial peak serum bile acid level versus placebo patients [1]: 23%
- Systemic absorption (levels of systemic exposure measured on day eight) ([2]; children, once-a-day in the morning for fourteen days): minimally absorbed
- concentration at 8 day ([2]; Subject 0308, 1.0 mg, 28.9 μg/kg QD): 0 ng/mL
- concentration at 8 day ([2]; Subject 0410, 2.5 mg, 42.0 μg/kg QD): 0 ng/mL
- concentration at 8 day ([2]; Subject 0510, 5.0 mg, 168.4 μg/kg QD): 0 ng/mL
- Tolerability [3]: well-tolerated
- Time after dosing to significantly lowered SBA levels (Male beagle dogs [4]; 0.05 mg/kg oral): 1 to 2 h
- Serum Bile Acid, Mean (Male beagle dogs [4]; 1 mg/kg p.o., 0 min from feeding, fed at 0 min, dosed at 60 min): 2.8 µg/mL
- Fecal bile acids (healthy, adult subjects): significant increase
- Serum bile acids (healthy, adult subjects): significant reduction
- Serum Bile Acid, Mean (Male beagle dogs [5]; 0 hr): 1.4 µg/mL
- Serum Bile Acid, Mean (Male beagle dogs [5]; 1 hr): 9.2 µg/mL
- Serum Bile Acid, Mean (Male beagle dogs [5]; 1.5 hr): 9.6 µg/mL
- Serum Bile Acid, Mean (Male beagle dogs [5]; 2 hr): 6.7 µg/mL
- Serum Bile Acid, Mean (Male beagle dogs [5]; 4 hr): 5.1* μg/ml
- Serum Bile Acid, Mean (Male beagle dogs [5]; 4.5 hr): 6.4 µg/mL
- Serum Bile Acid, Mean (Male beagle dogs [5]; 5 hr): 7.0 µg/mL
- Serum Bile Acid, Mean (Male beagle dogs [5]; 6 hr): 7.0 µg/mL
- Serum Bile Acid, Mean (Male beagle dogs [5]; 7 hr): 7.4 µg/mL
- Serum Bile Acid, Mean (Male beagle dogs [5]; 8 hr): 6.5 µg/mL
- Time LUM001 remains active (Male beagle dogs [5]; previous experiments): more than 4.5 hours

SMILES: CCCC[C@]1(CC)CS(=O)(=O)c2ccc(N(C)C)cc2[C@@H](c2cccc(NC(=O)N[C@@H]3O[C@H](COS(=O)(=O)[O-])[C@@H](O)[C@H](OCc4ccccc4)[C@H]3O)c2)[C@H]1O.[K+] [LUM002]
- Plasma bile acid levels (Male ZDF rats): decreased

SMILES: CCCC[C@]1(CC)CS(=O)(=O)c2cc(OC)c(OC)cc2[C@@H](c2ccccc2)N1 [Compound 264W94]
- Fecal bile acid concentrations elevated compared to vehicle treated rats ([6]; 0.001-10 mg/kg oral gavage twice a day, 24 h feces in second week): up to 6.5 fold
- ED50 for elevation of fecal bile acid concentrations ([6]; oral gavage twice a day): 0.17 mg/kg
- Fecal NEFA ([6]; oral gavage twice a day): slightly increased
- Plasma bile acid concentrations ([6]; oral gavage twice a day): decreased dose-dependently
